Key:
[1] = molecular target: IRdRp (PB2, PB1, PA and NP from the strain A/Vietnam/1203/04 (H1N1)) (Influenza A virus, UniProt Q5EP34); assay: cell-based; design: species or system influenza A/Vietnam/1203/04 (H1N1)
in vitro [2] = settings: human
in vitro [3] = settings: dog
[4] = tested on: A/Puerto Rico/8/34 (H1N1); assay: microbe, parasite or virus in culture; settings: Influenza A virus, H1N1, MDCK, 48 h, read-out: Growth Inhibition (%) 20 μM 48 h

Compound	IC50 [1] [µM]	CC50 at 72 h (in vitro [2]) [µM]	CC50 at 72 h (in vitro [3]) [µM]	inhibition at 20 µM [4] [%]
COc1ccc(NC(=O)c2nc(-c3ccccn3)nc(O)c2O)c(C)c1	10	< 25	> 25	0
CC1CCCCC1NC(=O)c1nc(-c2ccccn2)nc(O)c1O (stereo not shown)	5.5	< 25	5.5	97
CC(C)CC(C)NC(=O)c1nc(-c2ccccn2)nc(O)c1O (stereo not shown)	12.9	> 25	> 25	50
CCCCC(CC)CNC(=O)c1nc(-c2ccccn2)nc(O)c1O (stereo not shown)	4.3	< 25	> 25	94
CC1CCC(NC(=O)c2nc(-c3ccccn3)[nH]c(=O)c2O)CC1 (stereo not shown)	5.6	< 25	> 25	88
CCCCCC(C)NC(=O)c1nc(-c2ccccn2)nc(O)c1O (stereo not shown)	14.1	< 25	> 25	88
CC(C)(C)c1cccc(NC(=O)c2nc(-c3ccccn3)nc(O)c2O)c1	5.9	< 25	> 25	94
Cc1ccccc1NC(=O)c1nc(-c2ccccn2)nc(O)c1O	8.9	> 25	> 25	94
CC(CNC(=O)c1nc(-c2ccccn2)nc(O)c1O)c1ccccc1 (stereo not shown)	20.5	< 25	> 25	50
O=C(NC1CCCc2ccccc21)c1nc(-c2ccccn2)[nH]c(=O)c1O (stereo not shown)	3.6	2.6	7	97
O=C(NCc1cccc2ccccc12)c1nc(-c2ccccn2)[nH]c(=O)c1O	9.1	< 25	> 25	94
CC(C)(C)CCNC(=O)c1nc(-c2ccccn2)nc(O)c1O	10.1	< 25	> 25	88
Cc1cccc(NC(=O)c2nc(-c3ccccn3)nc(O)c2O)c1	27.1	< 25	> 25	75
